The numbers were not newly measured in patent US20230404885A1, “EPIDERMAL STEM CELL PROLIFERATION-PROMOTING AGENT” (Shiseido Company, Ltd., priority 2020, published 2023), which cites them from elsewhere.

In one data set the target is T1, heparanase (Homo sapiens, UniProt Q9Y251).
T1 sequence (Q9Y251 36-543): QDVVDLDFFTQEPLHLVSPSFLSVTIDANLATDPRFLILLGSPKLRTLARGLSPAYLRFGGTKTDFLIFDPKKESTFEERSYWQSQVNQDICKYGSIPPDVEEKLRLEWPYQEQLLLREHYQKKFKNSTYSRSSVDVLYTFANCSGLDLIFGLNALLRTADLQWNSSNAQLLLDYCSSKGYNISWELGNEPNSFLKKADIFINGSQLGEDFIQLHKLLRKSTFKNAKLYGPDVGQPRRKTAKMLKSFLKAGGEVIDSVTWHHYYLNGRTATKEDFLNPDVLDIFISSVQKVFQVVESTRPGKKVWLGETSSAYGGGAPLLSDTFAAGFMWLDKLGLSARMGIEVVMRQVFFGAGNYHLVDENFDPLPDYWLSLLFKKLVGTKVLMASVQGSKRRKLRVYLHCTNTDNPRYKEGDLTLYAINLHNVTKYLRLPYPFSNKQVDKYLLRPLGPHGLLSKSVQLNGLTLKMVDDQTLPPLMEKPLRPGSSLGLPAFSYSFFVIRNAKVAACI
As to conditions: known, see JP 2014-111640.

A further data set has as its target MMP-9 (Homo sapiens, UniProt P14780). The settings on record: known.
Another data set has as its target T2, MMP-1 (Homo sapiens, UniProt P03956).
T2 sequence (P03956 100-469): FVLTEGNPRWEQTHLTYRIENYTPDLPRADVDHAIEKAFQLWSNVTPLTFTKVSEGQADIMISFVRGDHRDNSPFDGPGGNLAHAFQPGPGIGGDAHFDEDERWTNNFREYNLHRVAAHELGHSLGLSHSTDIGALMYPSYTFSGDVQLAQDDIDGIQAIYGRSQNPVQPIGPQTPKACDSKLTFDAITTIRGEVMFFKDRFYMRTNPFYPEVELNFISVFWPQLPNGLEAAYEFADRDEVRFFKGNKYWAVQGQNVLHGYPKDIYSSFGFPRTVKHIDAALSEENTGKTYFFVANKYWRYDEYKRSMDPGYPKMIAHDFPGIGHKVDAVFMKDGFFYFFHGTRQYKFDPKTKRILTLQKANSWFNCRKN
The settings on record: known.

The target of another data set is T3, MMP-2 (Homo sapiens, UniProt P08253).
T3 sequence (P08253 110-660): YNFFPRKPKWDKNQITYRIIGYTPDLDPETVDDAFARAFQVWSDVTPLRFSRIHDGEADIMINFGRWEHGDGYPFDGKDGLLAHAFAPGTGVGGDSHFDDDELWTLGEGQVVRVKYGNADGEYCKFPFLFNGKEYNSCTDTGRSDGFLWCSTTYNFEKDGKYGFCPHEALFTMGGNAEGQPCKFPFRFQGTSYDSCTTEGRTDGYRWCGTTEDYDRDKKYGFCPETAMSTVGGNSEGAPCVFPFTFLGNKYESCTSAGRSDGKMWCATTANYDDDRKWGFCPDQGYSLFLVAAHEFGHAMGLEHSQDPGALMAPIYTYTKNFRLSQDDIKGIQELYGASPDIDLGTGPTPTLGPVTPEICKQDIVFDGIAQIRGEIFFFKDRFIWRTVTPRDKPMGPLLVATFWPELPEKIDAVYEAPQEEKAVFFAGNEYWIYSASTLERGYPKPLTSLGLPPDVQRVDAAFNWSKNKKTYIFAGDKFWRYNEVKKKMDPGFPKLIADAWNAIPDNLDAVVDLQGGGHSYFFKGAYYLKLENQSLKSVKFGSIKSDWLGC
As to conditions: known.

Chain of MMP-9 (P14780 94-707): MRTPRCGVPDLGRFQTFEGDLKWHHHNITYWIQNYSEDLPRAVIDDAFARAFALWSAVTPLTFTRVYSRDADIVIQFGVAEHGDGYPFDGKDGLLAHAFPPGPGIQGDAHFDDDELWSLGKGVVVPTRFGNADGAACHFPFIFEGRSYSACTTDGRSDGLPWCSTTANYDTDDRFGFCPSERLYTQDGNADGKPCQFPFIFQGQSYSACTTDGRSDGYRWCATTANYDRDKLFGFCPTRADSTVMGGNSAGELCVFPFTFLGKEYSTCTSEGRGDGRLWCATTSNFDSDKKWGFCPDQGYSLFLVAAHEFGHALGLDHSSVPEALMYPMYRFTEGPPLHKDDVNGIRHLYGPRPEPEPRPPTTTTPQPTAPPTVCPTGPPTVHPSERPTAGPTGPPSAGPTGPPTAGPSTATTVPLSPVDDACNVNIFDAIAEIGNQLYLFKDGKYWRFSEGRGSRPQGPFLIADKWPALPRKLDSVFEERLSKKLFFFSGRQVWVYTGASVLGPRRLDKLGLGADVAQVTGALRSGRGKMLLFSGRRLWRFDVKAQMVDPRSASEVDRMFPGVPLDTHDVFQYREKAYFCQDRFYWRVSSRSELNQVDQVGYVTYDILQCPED

Consider `O=C1NCCN1CCO` [S173, 1-(2-hydroxyethyl)-2-imidazolidinone], for which the heparanase activity inhibition result at heparanase is on record as “inhibitors of the heparanase activity”. Besides, the MMP-9 inhibition result at MMP-9 was “inhibits”. In addition, on MMP-1, the “effect on activity of MMP-1” value was “does not affect”. Besides, the “effect on activity of MMP-2” value on MMP-2 is reported as “does not affect”.
